Source: patent publication US20230149510A1, “METHOD FOR ALLEVIATING ARTHRITIS USING EPIDERMAL GROWTH FACTOR” (Lovin BioMed Co., Ltd., priority 2021, published 2023)

What was measured:
[1] = tested on: articular cartilage of the right knee joint, MIA-induced OA; experiment: Histopathologic analysis of right knee joint tissue (modified Mankin scoring), MIA-induced OA; type: in vivo, Sprague Dawley rats; conditions: rats; for morphological observation of articular cartilage of the right knee joint: 30 μL intraarticular on day 3 and day 14, day 28, versus pathological control, data not shown
Procedure: The Sprague Dawley rats were divided into five groups, including one normal control group, one pathological control group, one comparative group, and two experimental groups (i.e., experimental groups 1 to 2) (n=5 rats in each group).
The right knee joint of the respective rat in the pathological control group, the comparative group, and the experimental groups 1 and 2 was intraarticularly injected with 30 μL of a monosodium iodoacetate (MIA) solution (50 g/L, in 0.9% normal saline). In addition, the right knee joint of the respective rat in the normal control group was intraarticularly injected with 30 μL of 0.9% normal saline. […]
The tissue section was subjected to hematoxylin-eosin staining, and Safranin 0 and fast green staining using a staining protocol well-known to those skilled in the art, and was then observed under an optical microscope (Olympus, CKX41) at a magnification of 200×. Two areas of the respective tissue section were randomly selected and photographed, and pathological changes (such as cartilage damage, chondrocyte loss, and proteoglycan loss) in the respective tissue section was assessed according to the modified Mankin scoring system described in Pauli C. et al. (2012), Osteoarthritis Cartilage, 20:476-485. The degrees of cartilage damage, chondrocyte loss, and proteoglycan loss were scored on a scale from 1 to 5. […]
(§1) The data thus obtained were analyzed according to the method described in section 1 of the “General Procedures”.

[2] = tested on: knee joint tissue of the hind leg, CII-induced RA; experiment: Histopathologic analysis of knee joint tissue of the hind leg, collagen-induced RA; type: in vivo, DBA/1 mice; conditions: mice; for morphological observation of cartilage structure and surface: knee joint of hind leg after day 42, data not shown
Procedure: 2 mg/mL of a Chick type II collagen (CII) solution (Chondrex Inc., Cat. No. 20012) (in 10 mM acetic acid) was mixed with complete Freund's adjuvant (Sigma Aldrich, Cat. No. F5881-10ML) at a ratio of 1:1 (v/v), so as to obtain a first CII emulsion. 2 mg/mL of a Chick type CII solution was mixed with incomplete Freund's adjuvant (ChemCruzx, Cat. No. sc-24648) at a ratio of 1:1 (v/v), so as to obtain a second CII emulsion.
The female DBA/1 mice were divided into five groups, including one normal control group, one pathological control group, one comparative group, and two experimental groups (i.e., experimental groups 1 to 2) (n=6 mice in each group). 200 μL of the first CII emulsion was injected subcutaneously into the tail of the respective mouse of the pathological control group, the comparative group, and the two experimental groups. The mice were subjected to a boost injection using 200 μL of the second CII emulsion on the 21st day after the initial immunization, so as to induce the occurrence of RA. In addition, the rats of the normal control group were injected with an adjuvant solution (in PBS).
After completion of the boost injection, the respective mouse in the comparative group was intraperitoneally injected with 100 μL of 1% HA, the respective mouse in the experimental group 1 was intraperitoneally injected with 100 μL of the EGF solution (containing 20 μg/g EGF) prepared in section C of Example 1, the respective mouse in the experimental group 2 was intraperitoneally injected with 100 μL of the mixture solution (containing 20 μg/g EGF) prepared in section C of Example 1. Each mouse was administered once daily for a total period of 20 days.
After completion of the evaluation of RA severity as described in section C of this example, the mice in each group were sacrificed by virtue of 95% CO2 asphyxiation, and the knee joint tissue of the hind leg and the sole tissue were obtained from each mouse carcass. The knee joint tissue of the hind leg of each mouse was subjected to histological sectioning, hematoxylin-eosin staining, and microscopic observation in sequence according to the methods described in section F of Example 1.
Next, the pathological symptoms (i.e., inflammatory cell infiltration, synovial hyperplasia, and cartilage surface erosion) in the respective tissue section was assessed according to the method described in Deng G. M. et al. (2005), Nat Med., 11:1066-1072. The degrees of inflammatory cell infiltration, synovial hyperplasia, and cartilage surface erosion were scored on a scale from 1 to 4. The higher the scale, the higher the severity of the pathological symptom is.
as §1

“EGF: Epidermal growth factor (Cat. No. 02-108, Joycom Bio-chem) dissolved in PBS, 20 μg/g EGF; given to experimental group 1 (NSDSECPLSHDGYCLHDGVCMYIEALDKYACNCVVGYIGERCQYRDLKWWELR; UniProt P01133 971-1023, looked up)” was tested, and the “scale of OA (modified Mankin scoring, scale 1 to 5)” value ([1]; 30 μL intraarticular on day 3 and day 14, day 28, FIG. 2) was “significantly lower than that determined in the pathological control group”, the “morphological observation of articular cartilage of the right knee joint” value [1] was “fewer cracks and a smoother surface, and less chondrocyte and proteoglycan loss were observed” and the “morphological observation of cartilage structure and surface” value [2] was “the cartilage structure was partially damaged, and a partially intact cartilage surface was observed”. For the same substance, the “scale of cartilage surface erosion (scale 1 to 4)” value ([2]; knee joint of hind leg, FIG. 7) was “apparently or significantly lower than those determined in the pathological control group”, the “scale of inflammatory cell infiltration (scale 1 to 4)” value ([2]; knee joint of hind leg, FIG. 7) was “apparently or significantly lower than those determined in the pathological control group” and the “scale of synovial hyperplasia (scale 1 to 4)” value ([2]; knee joint of hind leg, FIG. 7) was “apparently or significantly lower than those determined in the pathological control group”.
With “hyaluronic acid [HA, reference compound]” the “morphological observation of articular cartilage of the right knee joint” value [1] was “fewer cracks and a smoother surface, and less chondrocyte and proteoglycan loss were observed” and the “morphological observation of cartilage structure and surface” value [2] was “the cartilage structure was partially damaged, and a partially intact cartilage surface was observed”.
